The IC50 is the concentration at which inhibition is half-maximal.

The values below come from patent US20230150986A1, “ANTAGONISTS OF THE MUSCARINIC ACETYLCHOLINE RECEPTOR M4” (Vanderbilt University, priority 2019, published 2023).

The test addresses T1, Human M4 (Homo sapiens, UniProt P08173).
T1 construct: Human or rat M4 cDNA, along with the chimeric G protein Gq,5, were transfected into Chinese hamster ovary (CHO-K1) cells; expressed in transfected cells; host or cells: CHO-K1 (M4/Gqi5/CHO)
T1 sequence (P08173 1-479): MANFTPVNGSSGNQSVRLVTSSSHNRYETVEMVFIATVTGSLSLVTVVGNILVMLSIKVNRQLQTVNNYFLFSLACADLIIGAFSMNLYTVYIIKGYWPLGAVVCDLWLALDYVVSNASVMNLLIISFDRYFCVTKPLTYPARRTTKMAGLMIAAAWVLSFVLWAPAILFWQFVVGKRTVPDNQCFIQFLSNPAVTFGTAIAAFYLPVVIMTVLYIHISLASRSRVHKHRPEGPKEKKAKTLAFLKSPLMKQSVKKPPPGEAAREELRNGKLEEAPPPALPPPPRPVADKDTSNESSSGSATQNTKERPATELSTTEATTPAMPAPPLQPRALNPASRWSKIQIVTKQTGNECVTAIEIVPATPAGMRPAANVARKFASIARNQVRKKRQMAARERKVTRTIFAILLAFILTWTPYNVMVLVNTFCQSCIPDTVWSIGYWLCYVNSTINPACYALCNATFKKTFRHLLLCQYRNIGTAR
Put plainly: mAChR M4 cell-based functional assay (calcium flux, decrease of EC80 acetylcholine response). To be noted: for Human M4 Emin: % ACh maximum at 30 μM; for IC50: CHO-K1 cells with human M4 and Gqi5, EC80 acetylcholine. The gist of the method:
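CHO-K1 cells stably co-expressing M4 with chimeric Gqi5, loaded with Fluo-4 AM for 50 min at 37 °C; compounds added as 10-point 1:3 curves, then acetylcholine at EC20 (143 s) and EC80 (268 s). Calcium read by FDSS fluorescence ratio; IC50 from four-parameter fit of decrease in EC80 acetylcholine response.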
On the technique in general: Calcium flux is commonly read through the fluorescence of an indicator in the cells.

For `Fc1cc(F)c(F)c(-c2ccc(N[C@H]3C[C@@H]4CN(CC5CCOCC5)C[C@@H]4C3)nn2)c1` [Compound 1, (3aR,5s,6aS)-2-((tetrahydro-2H-pyran-4-yl)methyl)-N-(6-(2,3,5-trifluorophenyl)pyridazin-3-yl)octahydrocyclopenta[c]pyrrol-5-amine], the “Human M4 Emin” value is 4% and the half-maximal inhibitory concentration (IC50) worked out at 10.5 nM.
The corresponding values for `Fc1cc(F)c(F)c(-c2ccc(N[C@H]3C[C@@H]4CN(Cc5ccccn5)C[C@@H]4C3)nn2)c1` [Compound 2, (3aR,5s,6aS)-2-(pyridin-2-ylmethyl)-N-(6-(2,3,5-trifluorophenyl)pyridazin-3-yl)octahydrocyclopenta[c]pyrrol-5-amine] are 4% and 21.1 nM.
